# Results: patent US7799954B2, “Dicarbonyl derivatives and methods of use” (Abraxis BioScience, LLC, priority 2006, dated 2010)
# Test system: MX-1 (human breast carcinoma) cells
# Experiment: in vitro growth inhibition, Promega CellTiter Blue Cell Viability Assay
# Format: cell-based
# Conditions: MX1, 72 h
# Method: The cytotoxicity assay was quantitated using the Promega CellTiter Blue Cell Viability Assay. Briefly, cells (5000 cells/well) were plated onto 96-well microtiter plates in RPMI 1640 medium supplemented with 10% FBS and incubated at […] in a humidified 5% CO2 atmosphere. After 24 h, cells were exposed to various concentrations of compound in DMSO and cultured for another 72 h. 100 ul of media were removed and 20 ul of Promega CellTiter Blue reagent were added to each well and shaken to mix. After 4 hours of incubation at 37° C. in a humidified 5% CO2 atmosphere, the plates were read at 544 ex/620 em. The fluorescence produced is proportional to the number of viable cells. After plotting fluorescence produced against drug concentration, the IC50 was calculated as the […] of the resulting non-linear regression.
row,SMILES,IC50
1,CN(C)C1=CC(=O)C(C2C(=O)C=C(N(C)C)CC2(C)C)C(C)(C)C1 (centres unmarked) [Compound 1],> 1000 µM
2,CC1(C)C=CC(=O)C(C2CC(C)(C)C=CC2=O)C1 (centres unmarked) [Compound 2],56.8 µM
3,O=C1CCC(c2ccccc2)CC1C1CC(c2ccccc2)CCC1=O (centres unmarked) [Compound 3],29.7 µM
4,CCOC1=CC(=O)C(C2CCC(OCC)=CC2=O)CC1 (centres unmarked) [Compound 4],> 1000 µM
5,COc1ccc2c(c1)CCC(C1CCc3cc(OC)ccc3C1=O)C2=O (centres unmarked) [Compound 5],> 1000 µM
6,O=C1c2ccccc2CCC1C1CCc2ccccc2C1=O (centres unmarked) [Compound 6],> 1000 µM
7,C/C=C/C(=O)C(C)C(C)C(=O)/C=C/C (centres unmarked) [Compound 7],2.63 µM
8,O=C1OC(c2ccccc2)CC1C1CC(c2ccccc2)OC1=O (centres unmarked) [Compound 9],472 µM
9,O=C(CCC(=O)C1=CCCCC1)C1=CCCCC1 [Compound 10],> 1000 µM
10,CC(C)=CC(=O)CCC(=O)C=C(C)C [Compound 11],10.3 µM
11,CC(C(=O)c1ccccc1)C(C)C(=O)c1ccccc1 (centres unmarked) [Compound 12],> 1000 µM
12,O=C(/C=C/c1ccccc1)CCC(=O)/C=C/c1ccccc1 [Compound 13],37.9 µM
13,O=C(/C=C/c1cccc(Cl)c1)CCC(=O)/C=C/c1cccc(Cl)c1 [Compound 14],55.7 µM
14,CCCC/C=C/C(=O)CCC(=O)/C=C/CCCC [Compound 15],7.99 µM
15,C/C=C/C(=O)C(C)C1CCC=CC1=O (centres unmarked) [Compound 20],0.52 µM
16,O=C(/C=C/c1ccccc1)CC1CCC=CC1=O (centres unmarked) [Compound 21],0.42 µM
17,COc1ccc(/C=C/C(=O)CC2CCC=CC2=O)cc1OC (centres unmarked) [Compound 23],0.17 µM
18,O=C(/C=C/c1ccc2c(c1)OCO2)CC1CCC=CC1=O (centres unmarked) [Compound 24],0.7 µM
19,O=C(O)/C=C/C(=O)/C=C/c1ccccc1 [Compound 28],3.96 µM
20,COc1ccc(/C=C/C(=O)/C=C/C(=O)O)cc1OC [Compound 29],29 µM
21,COc1cc(/C=C/C(=O)/C=C/C(=O)O)cc(OC)c1OC [Compound 30],34.2 µM
22,COc1ccc(/C=C/C(=O)/C=C/C(=O)N2CCN(c3ccncc3)CC2)cc1OC [Compound 37],0.12 µM
23,COc1ccc(/C=C/C(=O)/C=C/C(=O)N2CCN(c3ccccc3)CC2)cc1OC [Compound 38],0.25 µM

# Same assay, conditions: MX1, MX-1 cells, 72 h exposure, CellTiter Blue fluorescence 544 ex/620 em, read-out: IC50
row,SMILES,IC50
1,CC(C)=C/C=C/C(=O)CCC(=O)/C=C/C=C(C)C [Compound 16],16.2 µM
2,COc1ccc(/C=C/C(=O)CCC(=O)/C=C/c2ccc(OC)c(OC)c2)cc1OC [Compound 17],73.1 µM
3,O=C1c2cc(F)ccc2OCC1C1COc2ccc(F)cc2C1=O (centres unmarked) [Compound 18],> 1000 µM
4,CC(C)=CC(=O)CC1CCC=CC1=O (centres unmarked) [Compound 19],1.04 µM
5,C/C=C/C(=O)C(C)CC(=O)/C=C/c1ccccc1 (centres unmarked) [Compound 22],2.07 µM
6,O=C(/C=C/c1ccc(O)cc1)CC1CCC=CC1=O (centres unmarked) [Compound 25],0.16 µM
7,O=C(/C=C/c1cccc(C(F)(F)F)c1)CC1CCC=CC1=O (centres unmarked) [Compound 26],2.59 µM
8,CCOC(=O)CCC(=O)/C=C/c1ccccc1 [Compound 27],77.5 µM
9,CCOC(=O)/C=C/C(=O)/C=C/c1ccccc1 [Compound 31],2.17 µM
10,CCCN(C)C(=O)/C=C/C(=O)/C=C/c1ccccc1 [Compound 32],0.39 µM
11,O=C(/C=C/C(=O)Nc1ccccc1)/C=C/c1ccccc1 [Compound 33],3.25 µM
12,CCCN(C)C(=O)/C=C/C(=O)/C=C/c1ccc(OC)c(OC)c1 [Compound 34],0.28 µM
13,COc1ccc(/C=C/C(=O)/C=C/C(=O)Nc2ccccc2)cc1OC [Compound 35],0.89 µM
14,COc1ccc(/C=C/C(=O)/C=C/C(=O)N2CCN(C)CC2)cc1OC [Compound 36],0.17 µM
15,COc1cc(/C=C/C(=O)/C=C/C(=O)N2CCN(C)CC2)cc(OC)c1OC [Compound 39],0.8 µM
16,COc1cc(/C=C/C(=O)/C=C/C(=O)N2CCN(c3ccncc3)CC2)cc(OC)c1OC [Compound 40],0.48 µM
17,COC(=O)/C=C/C(=O)Nc1ccc(F)cc1 [Compound 41],121 µM
18,CO/N=C(\C=C\c1ccc(OC)c(OC)c1)CC1CCC=C/C1=N\OC (centres unmarked) [Compound 42],128 µM
19,CCCN(C)C(=O)/C=C/C(/C=C/c1ccccc1)=N\OC [Compound 43],171 µM
20,COc1ccc(/C=C/C(/C=C/C(=O)N2CCN(C)CC2)=NO)cc1OC [Compound 45],371 µM
21,CON=C(/C=C/C(=O)N1CCN(C)CC1)/C=C/c1ccc(OC)c(OC)c1 [Compound 46],482 µM
22,COc1ccc(/C=C/C(/C=C/C(=O)N2CCN(C)CC2)=NOc2ccccc2)cc1OC [Compound 47],8.73 µM
23,COc1ccc(/C=C/C(/C=C/C(=O)N2CCN(C)CC2)=NOCc2ccccc2)cc1OC [Compound 48],23.4 µM
24,CON=C(/C=C/C(=O)N1CCN(C)CC1)/C=C/c1cc(OC)c(OC)c(OC)c1 [Compound 49],> 1000 µM
25,O=C(O)c1cc(/C=C/c2ccccc2)no1 [Compound 50],> 1000 µM
26,CCOC(=O)c1cc(/C=C/c2ccccc2)no1 [Compound 51],533 µM
27,CCCN(C)C(=O)c1cc(/C=C/c2ccccc2)no1 [Compound 52],195 µM
